From paper PMC12539213, “Molecular targeting of the deubiquitinase USP14 to circumvent cisplatin resistance in ovarian carcinoma and identification of novel inhibitors” (Cancer Drug Resistance, 2025)

How the values were obtained:
[1] = biological target: T1, USP14 (ubiquitin-specific protease 14) (Homo sapiens, UniProt P54578); assay: Ub-Rho110-G hydrolysis assay, recombinant USP14 with Ub-VS-treated […] proteasome, dose-response; type: biochemical
T1 construct: USP14 (6His-tagged), 64-0018-050, Ubiquigent; with Ub-VS-treated human 26S proteasome

[2] = biological target: T1, USP14 (ubiquitin-specific protease 14); assay: Ub-Rho110-G hydrolysis assay, positive control at […] ([…] inhibition) and […] ([…]); also HA-Ub-VS labeling in IGROV-1/Pt1 cells; type: biochemical

T1 sequence (P54578 whole entry): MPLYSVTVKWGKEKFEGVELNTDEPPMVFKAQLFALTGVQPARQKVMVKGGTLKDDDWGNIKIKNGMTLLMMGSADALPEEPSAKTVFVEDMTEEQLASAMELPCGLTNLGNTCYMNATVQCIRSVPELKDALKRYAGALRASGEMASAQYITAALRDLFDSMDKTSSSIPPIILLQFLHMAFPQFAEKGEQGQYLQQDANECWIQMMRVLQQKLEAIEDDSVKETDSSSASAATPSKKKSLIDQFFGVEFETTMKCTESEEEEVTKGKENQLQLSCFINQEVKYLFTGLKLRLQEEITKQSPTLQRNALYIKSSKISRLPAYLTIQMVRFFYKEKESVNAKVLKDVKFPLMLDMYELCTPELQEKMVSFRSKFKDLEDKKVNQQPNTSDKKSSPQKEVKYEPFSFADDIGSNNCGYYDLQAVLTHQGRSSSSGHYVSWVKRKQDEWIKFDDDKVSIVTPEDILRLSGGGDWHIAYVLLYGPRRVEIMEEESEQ

IC50 [1] | Compound | IC50 [2]
18.4 ± 2.2 µM | CC1=NN(c2cccc(NC(=O)c3ccccc3Cn3ccnc3)c2)C(=O)C1 [ARN12502] | 
 | Cc1cc(C(=O)CN2CCCCC2)c(C)n1-c1ccc(Cl)cc1 [IU1-47] | ~ 200 nM
